Results: BindingDB's records for doi:10.1021/jm980314l (Tanabe Seiyaku, 1999)
Structures can show the parent of a compound that is named as a salt.

Molecular target: cGMP-specific 3',5'-cyclic phosphodiesterase PDE5 (Cavia porcellus)
Experiment: Inhibition of Phosphodiesterase 5 of guinea pig lung

Q: How did the IC50 turn out when `CCOc1cc2cc(CO)c(CO)c(-c3ccnc(-n4nc(-c5cccnc5)c5ccccc5c4=O)c3)c2cc1OCC` [2-[4-(6,7-Diethoxy-2,3-bis-hydroxymethyl-naphthalen-1-yl)-pyridin-2-yl]-4-pyridin-3-yl-2H-phthalazin-1-one; hydrochloride] was run?
A: 0.2 µM

Q: For `CCOc1cc2cc(CO)c(CO)c(-c3ccnc(-n4nc(-c5cccnc5)c5ccccc5c4=O)c3)c2cc1OC` [2-[4-(6-Ethoxy-2,3-bis-hydroxymethyl-7-methoxy-naphthalen-1-yl)-pyridin-2-yl]-4-pyridin-3-yl-2H-phthalazin-1-one; hydrochloride], which IC50 is on record?
A: 1 µM

Q: `COc1cc2cc(CO)c(CO)c(-c3ccnc(-n4ccccc4=O)c3)c2cc1OC` [4'-(2,3-Bis-hydroxymethyl-6,7-dimethoxy-naphthalen-1-yl)-[1,2']bipyridinyl-2-one] was tested. Which IC50 did it give?
A: 40 µM

Q: With `COc1cc2cc(CO)c(CO)c(-c3ccnc(-n4nc(-c5cccnc5)c5ccccc5c4=O)c3)c2cc1OC` [2-[4-(2,3-Bis-hydroxymethyl-6,7-dimethoxy-naphthalen-1-yl)-pyridin-2-yl]-4-pyridin-3-yl-2H-phthalazin-1-one; hydrochloride] as the molecule, how does the IC50 read?
A: 4 µM

Q: For `COc1cc2cc(CO)c(CO)c(-c3ccnc(-n4nc(-c5ccccn5)c5ccccc5c4=O)c3)c2cc1OC` [2-[4-(2,3-Bis-hydroxymethyl-6,7-dimethoxy-naphthalen-1-yl)-pyridin-2-yl]-4-pyridin-2-yl-2H-phthalazin-1-one; hydrochloride], which IC50 is on record?
A: 9 µM

Q: Which IC50 does the source give for `COc1cc2cc(CO)c(CO)c(-c3ccc(-n4nc(-c5cccnc5)c5ccccc5c4=O)nc3)c2cc1OC` [2-[5-(2,3-Bis-hydroxymethyl-6,7-dimethoxy-naphthalen-1-yl)-pyridin-2-yl]-4-pyridin-3-yl-2H-phthalazin-1-one; hydrochloride] here?
A: 40 µM

Q: How did the IC50 turn out when `COc1cc2cc(CO)c(CO)c(-c3ccnc(-n4ccc(=O)c5ccccc54)c3)c2cc1OC` [1-[4-(2,3-Bis-hydroxymethyl-6,7-dimethoxy-naphthalen-1-yl)-pyridin-2-yl]-1H-quinolin-4-one] was run?
A: 20 µM

Q: `O=c1c2ccccc2c(-c2cccnc2)nn1-c1cc(-c2c(CO)c(CO)cc3ccccc23)ccn1` [2-[4-(2,3-Bis-hydroxymethyl-naphthalen-1-yl)-pyridin-2-yl]-4-pyridin-3-yl-2H-phthalazin-1-one; hydrochloride] was tested. Which IC50 did it give?
A: 10 µM
